Experiments:
[1] = In vitro activities of purified 6-gingerol compared with the crude ginger extract; settings: 6-gingerol purified to greater than 95%
Source text: The ginger root is also a source of multiple biologically active gingerol compounds, including 6-gingerol, 8-gingerol, 10-gingerol, 6-paradol, 6-shagoal and cassumunin. 6-gingerol is the most abundant analogue in the extract used here, and represents approximately 32% of the total extract. […] In addition, synthetic curcuminoids and synthetic gingerols are also available. One goal is to have a preparation that is inexpensive to prepare so that individuals at risk for non-healing skin ulcers can utilize it on a long-term basis as a wound preventative.

MMP-2 [2] = assay: MMP-2 (gelatin zymography) in organ culture fluid of skin from topically treated healthy hairless rats; assay type: in vivo, rat; settings: 10% curcumin / 3% ginger extract topical, skin in organ culture 3 days, compared to control skin
Procedure: (§1) Wounding was performed under sterile conditions in a laminar flow hood. Wound size was determined daily by measuring the X-axis and Y-axis of the scabbed wound and calculating the area of the remaining scab. At the time of wound closure, animals were sacrificed and duplicate 6 mm skin punches were collected from wounded and healed skin. One biopsy was fixed in 10% buffered formalin and used for histological analysis. The other biopsy was put in organ culture for 3 days. Briefly, the skin was cut into pieces of approximately 2 mm on a side, and four-five such pieces were incubated for 3 days in 0.5 mL of a culture medium consisting of growth factor-free, serum-free, Keratinocyte Basal Medium (KBM) (Lonza, Walkersville, Md.). Before use, the culture medium was supplemented with Ca^2+ to a final concentration of 1.4 mM. At the end of the 3-day incubation period, the organ culture fluid was collected and assayed for soluble type I collagen by western blotting and MMP-2 and -9 gelatin zymography (see below).
(§2) Analysis of Metalloproteinases: MMP-2 and MMP-9: Gelatin-embedded enzymography (zymography) was used to assess levels of latent and active MMP-2 and MMP-9 in organ culture fluids. SDS-PAGE gels were prepared with the incorporation of gelatin (1 mg/mL) at the time of casting.

MMP-1 [3] = assay: MMP-1 levels in human skin organ culture fluid; assay type: cell-based; settings: increasing amounts of curcumin added to 1 μg per mL ginger extract
Procedure: Human skin was incubated in organ culture under control conditions (Ca^2+-supplemented KBM culture medium) or in the same culture medium with 1 μg per mL ginger extract. Increasing amounts of curcumin were added. […] Human skin was incubated in organ culture under control conditions (Ca^2+-supplemented KBM culture medium) or in the same culture medium with 1 μg per mL ginger extract. Increasing amounts of curcumin were added.

MMP-9 [4] = assay: MMP-9 (gelatin zymography) in organ culture fluid of healed wound skin, Temovate rat model; assay type: in vivo; settings: botanical treatment of Temovate-treated rats
Procedure: as §1, with “At the end of the 3-day incubation period, the organ culture fluid was collected and assayed for soluble type I collagen by western blotting and MMP-2 and -9 gelatin zymography (see below).” left out
(§3) Analysis of Metalloproteinases: MMP-2 and MMP-9: Gelatin-embedded enzymography (zymography) was used to assess levels of latent and active MMP-2 and MMP-9 in organ culture fluids. […] After electrophoresis under non-reducing conditions to separate proteins and overnight incubation to allow for substrate digestion, zones of hydrolysis were identified as “holes” in the stained gels and quantified. Values for latent and active MMPs-2 and -9 bands were obtained following digitization and quantification. […]

epidermal keratinocytes = assay: Epidermal keratinocyte proliferation
Source text: There are several surprising and unexpected ways in which the combination of curcumin and 6-gingerol functions. First, these compounds promote collagen building in combination. On one hand, the ginger compound serves to raise the level of collagen-degrading enzymes, such as matrix metalloproteinases (MMPs), as one of its functions. On the other hand, the curcumin compound suppresses the MMP elevation stimulated by the ginger compound. Second, the combination promotes vascularization. During wound healing there is the need for new vascularization. However, new vessel growth needs to halt at some point and some vessels need to regress at a time when the wounded skin is fully healed. The ginger compound stimulates new vessel formation and the combination of curcumin and ginger extract result in a reduction in the number of capillaries in the skin at the end of the wound healing. This allows the skin to return to quiescence. Third, the combination promotes epidermal proliferation. Skin irritation is intimately associated with epidermal hyperplasia. The ginger compound stimulates epidermal keratinocyte proliferation while the curcumin compound suppresses ginger extract-induced keratinocyte growth. This may be the underlying factor responsible for the absence of irritation by the combination, for example, as compared to irritation observed with retinoid therapy. […]

[5] = system: abrasion wounds in skin of corticosteroid-treated hairless rats; assay: Abrasion wound healing in corticosteroid-treated hairless rats; assay type: in vivo, rat; settings: 21 days pretreatment, then 15 days with Temovate; 10% curcumin, 3% ginger extract; compared to Temovate plus vehicle alone
Procedure: Rat Model: Hairless rats were treated for 21 days topically over the back and flank with 500 μL of solutions containing 10% curcumin, 3% ginger extract or the combination of the two. Vehicle alone served as control. During the treatment phase, animals were examined daily for changes in the gross appearance of the skin. After the initial 21-day pretreatment period, rats were treated with Temovate® (clobetasol propionate) cream along with the botanicals for an additional 15 day period. Temovate® (0.05% solution of clobetasol propionate in cream base) was obtained from Glaxo Smith Kline (Philadelphia, Pa.). Temovate® was applied in the morning and botanicals were applied in the evening. At the end of the treatment period, abrasion wounding was performed. […] A pre-measured circular area, approximately 6 cm in diameter, was scrubbed with a stiff-nylon bristle brush lightly wetted with acetone and concomitantly abraded with a piece of course sanding sponge. […]
Wounding was performed under sterile conditions in a laminar flow hood. Wound size was determined daily by measuring the X-axis and Y-axis of the scabbed wound and calculating the area of the remaining scab. […]
Statistical Analysis: Data were analyzed using one-way analysis of variance (ANOVA) followed by the Bonferroni posttest for selected pairs (GraphPad Prism version 4.00 for Windows, GraphPad Software, San Diego, Calif.). […]

type I collagen [6] = assay: Soluble type I collagen (Western blot) in organ culture fluid of healed wound skin, Temovate rat model; assay type: in vivo
Procedure: Wounding was performed under sterile conditions in a laminar flow hood. Wound size was determined daily by measuring the X-axis and Y-axis of the scabbed wound and calculating the area of the remaining scab. At the time of wound closure, animals were sacrificed and duplicate 6 mm skin punches were collected from wounded and healed skin. One biopsy was fixed in 10% buffered formalin and used for histological analysis. The other biopsy was put in organ culture for 3 days. […]
Analysis of Type I Collagen: Organ culture fluids were assayed for type I collagen by Western blot analysis. Briefly, organ culture fluids representing an equal quantity of protein were resolved using 8% SDS-PAGE under non-reducing conditions and transferred to nitrocellulose membranes. […] The membranes were then washed with TTBS and bound antibody was detected using the Phototope-HRP western detection kit (Cell Signaling Technologies, Inc., Danvers, Mass.). Images were scanned, digitized, and quantified using NIH image analysis software.
At the time of wound closure, skin from the center of the initial wound (most recently healed skin) was obtained and incubated in organ culture for three days. Organ culture fluids were collected at the end of the incubation period and analyzed for type I collagen and MMP-2/MMP-9. […]

[7] = system: skin of healthy hairless rats; assay: Topical treatment of healthy hairless rats: gross appearance and irritation of the skin; assay type: in vivo, rat; settings: topical once daily for 14 days, 10% curcumin and 3% ginger extract alone and in combination
Procedure: The botanicals were dissolved in a vehicle (70% ethanol and 30% propylene glycol) at 10.0% for curcumin and 3% for the ginger extract. The concentrations chosen for the two botanicals were based on results from preliminary in vitro studies and in vivo studies with healthy hairless rats.
Based on in vitro experiments in which a wide range of concentrations of both curcumin and the ginger extract were tested, healthy hairless rats were treated topically once daily for 14 days with solutions containing 10% curcumin and 3% ginger extract, alone and in combination. Control rats were treated with vehicle alone. Animals were monitored closely during the treatment period of any visible changes in gross appearance of the skin. […] At the end of the treatment period, skin from the treated site of each animal was obtained. The skin was incubated in organ culture for 3 days.

MMP-9 [8] = assay: MMP-9 (gelatin zymography) in organ culture fluid of skin from topically treated healthy hairless rats; assay type: in vivo, rat; settings: 10% curcumin / 3% ginger extract topical, skin in organ culture 3 days, compared to control skin
Procedure: as §1, §2

MMP-1 [9] = assay: MMP-1 levels in human dermal fibroblast culture fluid; assay type: cell-based; settings: increasing amounts of curcumin added to 1 μg per mL ginger extract
Procedure: Fibroblasts were incubated under control conditions (Ca^2+-supplemented KBM culture medium) or in the same culture medium supplemented with 1 μg per mL ginger extract. Increasing amounts of curcumin (X-axis) were added. […] Fibroblasts were incubated under control conditions (Ca^2+—supplemented KBM culture medium) or in the same culture medium supplemented with 1 μg per mL ginger extract. Increasing amounts of curcumin were added.

type I collagen [10] = assay: Soluble type I collagen (Western blot) in organ culture fluid of skin from topically treated healthy hairless rats; assay type: in vivo, rat; settings: 10% curcumin / 3% ginger extract topical, skin in organ culture 3 days, compared to control skin
Procedure: as §1

MMP-2 [11] = assay: MMP-2 (gelatin zymography) in organ culture fluid of healed wound skin, Temovate rat model; assay type: in vivo; settings: botanical treatment of Temovate-treated rats
Procedure: as §1, with “At the end of the 3-day incubation period, the organ culture fluid was collected and assayed for soluble type I collagen by western blotting and MMP-2 and -9 gelatin zymography (see below).” left out
as §3

| SMILES | in vitro activities compared with the crude extract [1] | MMP-2 in organ culture fluid (MMP-2 [2]) | ginger extract-induced MMP-1 expression in human skin organ culture fluid (MMP-1 [3]) | MMP-9 level in organ culture fluid (MMP-9 [4]) | ginger extract-induced keratinocyte growth (epidermal keratinocytes) | wound closure (percent of wound healed) [5] | type I collagen in organ culture fluid (type I collagen [6]; botanicals prior to and during Temovate treatment, compared to rats treated with Temovate and vehicle) | type I collagen in organ culture fluid (type I collagen [6]; treatment along with Temovate, compared to control culture fluids from rats not exposed to Temovate) | skin irritation [7] | MMP-9 in organ culture fluid (MMP-9 [8]) | ginger extract-induced MMP-1 expression in fibroblast culture fluid (MMP-1 [9]) | soluble type I collagen in organ culture fluid (type I collagen [10]) | MMP-2 level in organ culture fluid (MMP-2 [11]) |
| --- | --- | --- | --- | --- | --- | --- | --- | --- | --- | --- | --- | --- | --- |
| CCCCCC(O)CC(=O)CCc1ccc(OC)c(O)c1 (stereo not shown) [6-gingerol, 5-hydroxy-1-(3-hydroxy-4-methoxyphenyl)decan-3-one] | same in vitro activities as the crude extract itself | – | – | – | – | – | – | – | – | – | – | – | – |
| COc1cc(/C=C/C(=O)CC(=O)/C=C/c2ccc(O)c(OC)c2)ccc1O [curcumin, (1E,6E)-1,7-bis(4-hydroxy-3-methoxyphenyl)hepta-1,6-diene-3,5-dione] | – | decrease | inhibited | reduced | suppresses | improved | elevated | higher | No irritation | decreased | inhibited | increased | reduced |

Source: US20100105644A1, “BOTANICAL COMPOSITION FOR ENHANCED SKIN REPAIR AND USES THEREOF” (The Regents of the University of Michigan, priority 2008, published 2010)
